Source: publication PMC5433351 (Metabolic engineering, 2016)

Target: HPCS, 3-hydroxypropionyl-CoA synthetase (HPCS/HPCD complex) (Metallosphaera sedula, UniProt A4YGR1)
Settings: ATP 3 mM, CoA 0.1 mM, MgCl2 20 mM, NADPH 0.5 mM, pH 6.5, 65°C

HPCS, 3-hydroxypropionyl-CoA synthetase (HPCS/HPCD complex), sequence (A4YGR1 whole entry): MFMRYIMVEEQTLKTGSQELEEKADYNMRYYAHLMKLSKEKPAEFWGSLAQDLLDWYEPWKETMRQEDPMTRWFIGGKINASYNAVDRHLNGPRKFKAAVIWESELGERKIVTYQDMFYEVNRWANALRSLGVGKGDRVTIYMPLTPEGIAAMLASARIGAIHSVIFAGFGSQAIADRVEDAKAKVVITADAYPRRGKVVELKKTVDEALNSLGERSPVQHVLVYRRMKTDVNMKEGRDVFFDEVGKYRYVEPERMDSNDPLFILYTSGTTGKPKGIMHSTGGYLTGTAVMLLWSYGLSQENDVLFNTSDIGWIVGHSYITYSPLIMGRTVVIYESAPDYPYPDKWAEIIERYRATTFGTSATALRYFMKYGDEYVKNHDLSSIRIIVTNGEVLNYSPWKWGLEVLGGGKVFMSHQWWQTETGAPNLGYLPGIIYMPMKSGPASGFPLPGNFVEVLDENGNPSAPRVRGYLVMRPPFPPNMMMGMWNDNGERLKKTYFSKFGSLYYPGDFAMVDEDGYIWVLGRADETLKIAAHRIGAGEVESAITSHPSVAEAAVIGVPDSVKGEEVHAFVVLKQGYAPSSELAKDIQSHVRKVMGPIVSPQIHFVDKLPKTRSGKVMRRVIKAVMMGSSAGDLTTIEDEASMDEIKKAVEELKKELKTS
HPCS, 3-hydroxypropionyl-CoA synthetase (HPCS/HPCD complex), sequence (A4YI89 whole entry partner): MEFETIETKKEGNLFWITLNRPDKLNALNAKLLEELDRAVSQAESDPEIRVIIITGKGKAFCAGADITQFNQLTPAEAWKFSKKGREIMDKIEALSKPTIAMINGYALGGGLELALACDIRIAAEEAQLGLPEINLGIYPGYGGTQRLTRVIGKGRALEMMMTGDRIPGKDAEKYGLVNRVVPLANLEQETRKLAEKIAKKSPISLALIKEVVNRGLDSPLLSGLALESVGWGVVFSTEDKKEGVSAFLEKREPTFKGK

Structure (SMILES): O=C(O)CCO [3-Hydroxypropionate]
- HPLC of propionyl-CoA formed with HPCS/HPCD and ACR: Formation of propionyl-CoA from 3HP by HPCS, HDCD, and ACR
